In PubChem BioAssay AID248 (DTP/NCI, 2004):
Several values for one entry are separate records, joined by “and”; a condition that tells them apart may be missing. Equal values may be shown once. Toxic doses and inconclusive results are not listed. Cut-off read from the data, not from the text of the source: active = T/C of 150% or more; inactive = T/C below 125%.

System: L1210 leukemia ip in BDF1 mice, survival T/C
Experiment: NCI In Vivo Anticancer Drug Screen. Data for tumor model L1210 Leukemia (intraperitoneal) in B6D2F1 (BDF1) mice
Conditions: endpoint: mean survival time, higher = longer survival
Method in brief: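 Read-out is survival time, reported as the treated-group measurement over the vehicle-control measurement.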

[1] = dose: 100.0 mg/kg/injection, schedule: Q04DX003 (ip), vehicle: saline with Tween-80
[2] = dose: 200.0 mg/kg/injection, schedule: Q04DX003 (ip), vehicle: saline with Tween-80
[3] = dose: 400.0 mg/kg/injection, schedule: Q04DX003 (ip), vehicle: saline with Tween-80
[4] = dose: 50.0 mg/kg/injection, schedule: Q01DX009 (ip), vehicle: Klucel (hydroxypropylcellulose) (HPC)
[5] = dose: 100.0 mg/kg/injection, schedule: Q01DX009 (ip), vehicle: Klucel (hydroxypropylcellulose) (HPC)
[6] = dose: 100.0 mg/kg/injection, schedule: Q04DX003 (ip), vehicle: Klucel (hydroxypropylcellulose) (HPC)
[7] = dose: 200.0 mg/kg/injection, schedule: Q01DX009 (ip), vehicle: Klucel (hydroxypropylcellulose) (HPC)
[8] = dose: 200.0 mg/kg/injection, schedule: Q04DX003 (ip), vehicle: Klucel (hydroxypropylcellulose) (HPC)
[9] = dose: 100.0 mg/kg/injection, schedule: Q01DX001 (ip), vehicle: Klucel (hydroxypropylcellulose) (HPC)
[10] = dose: 200.0 mg/kg/injection, schedule: Q01DX001 (ip), vehicle: Klucel (hydroxypropylcellulose) (HPC)
[11] = dose: 400.0 mg/kg/injection, schedule: Q01DX001 (ip), vehicle: Klucel (hydroxypropylcellulose) (HPC)
[12] = dose: 400.0 mg/kg/injection, schedule: Q04DX003 (ip), vehicle: Klucel (hydroxypropylcellulose) (HPC)
[13] = dose: 10.0 mg/kg/injection, schedule: Q01DX001 (ip), vehicle: saline
[14] = dose: 20.0 mg/kg/injection, schedule: Q01DX001 (ip), vehicle: saline

Measured: T/C

CCCCOC(=O)c1cccnc1
inactive: dose: 50.0 mg/kg/injection, schedule: Q04DX003 (ip), vehicle: saline with Tween-80 97 % of control | [1] 94 % of control and 102 % of control | [2] 103 % of control | [3] 91 % of control

C[n+]1cn(CCCl)c2ccccc21
inactive: dose: 10.0 mg/kg/injection, schedule: Q01DX Z (ip), vehicle: saline 93 % of control | dose: 30.0 mg/kg/injection, schedule: Q01DX Z (ip), vehicle: saline 95 % of control

CCCCNC(=O)OC
inactive: [4] 94 % of control | [5] 97 % of control | [6] 98 % of control | [7] 102 % of control | [8] 91 % of control

CC(=O)NCCc1ccc(NCCCc2c(-c3ccccc3)nc(N)[nH]c2=O)cc1
inactive: dose: 100.0 mg/kg/injection, schedule: Q01DX009 (ip), vehicle: saline 97 % of control | dose: 200.0 mg/kg/injection, schedule: Q01DX009 (ip), vehicle: saline 95 % of control | dose: 400.0 mg/kg/injection, schedule: Q01DX009 (ip), vehicle: saline 101 % of control

c1ccc([Si](C[CH2][Sn]([c]2ccccc2)([c]2ccccc2)[c]2ccccc2)(c2ccccc2)c2ccc([Si](C[CH2][Sn]([c]3ccccc3)([c]3ccccc3)[c]3ccccc3)(c3ccccc3)c3ccccc3)cc2)cc1
inactive: [1] 100 % of control | [2] 96 % of control | [3] 96 % of control

Cc1ccccc1C(=O)c1ccccc1C
inactive: dose: 50.0 mg/kg/injection, schedule: Q01DX001 (ip), vehicle: other 118 % of control | dose: 100.0 mg/kg/injection, schedule: Q01DX001 (ip), vehicle: other 102 % of control | dose: 200.0 mg/kg/injection, schedule: Q01DX001 (ip), vehicle: other 113 % of control | dose: 400.0 mg/kg/injection, schedule: Q01DX001 (ip), vehicle: other 107 % of control

O=C(O)c1cc2ccccc2cc1Sc1ccccc1
inactive: [1] 103 % of control | [2] 102 % of control

Cc1c2c(ccc3ccccc32)c[n+]2ccccc12
inactive: dose: 1.1 mg/kg/injection, schedule: Q01DX009 (ip), vehicle: saline 97 % of control | dose: 1.1 mg/kg/injection, schedule: Q03HX024 (ip), vehicle: saline 98 % of control | dose: 1.7 mg/kg/injection, schedule: Q01DX009 (ip), vehicle: saline 105 % of control | dose: 1.7 mg/kg/injection, schedule: Q03HX024 (ip), vehicle: saline 100 % of control | dose: 1.8 mg/kg/injection, schedule: Q01DX Z (ip), vehicle: methylcellulose (MC) 116 % of control | dose: 2.0 mg/kg/injection, schedule: Q01DX009 (ip), vehicle: saline 96 % of control | dose: 2.5 mg/kg/injection, schedule: Q01DX Z (ip), vehicle: carboxymethylcellulose (CMC) 105 % of control | dose: 2.6 mg/kg/injection, schedule: Q01DX009 (ip), vehicle: saline 102 % of control | dose: 2.6 mg/kg/injection, schedule: Q03HX024 (ip), vehicle: saline 108 % of control | dose: 2.7 mg/kg/injection, schedule: Q01DX Z (ip), vehicle: methylcellulose (MC) 105 % of control | dose: 3.0 mg/kg/injection, schedule: Q01DX009 (ip), vehicle: saline 108 % of control | dose: 4.0 mg/kg/injection, schedule: Q01DX009 (ip), vehicle: saline 103 % of control | dose: 4.0 mg/kg/injection, schedule: Q01DX Z (ip), vehicle: methylcellulose (MC) 107 % of control | dose: 4.0 mg/kg/injection, schedule: Q03HX024 (ip), vehicle: saline 98 % of control | dose: 4.4 mg/kg/injection, schedule: Q01DX Z (ip), vehicle: methylcellulose (MC) 119 % of control | dose: 4.5 mg/kg/injection, schedule: Q01DX009 (ip), vehicle: saline 108 % of control | dose: 5.0 mg/kg/injection, schedule: Q01DX001 (ip), vehicle: carboxymethylcellulose (CMC) 100 % of control | dose: 5.0 mg/kg/injection, schedule: Q01DX Z (ip), vehicle: carboxymethylcellulose (CMC) 119 % of control | dose: 6.0 mg/kg/injection, schedule: Q01DX009 (ip), vehicle: saline 105 % of control and 107 % of control | dose: 6.0 mg/kg/injection, schedule: Q03HX024 (ip), vehicle: saline 104 % of control and 106 % of control | dose: 6.25 mg/kg/injection, schedule: Q04DX003 (ip), vehicle: saline 104 % of control | dose: 6.6 mg/kg/injection, schedule: Q01DX Z (ip), vehicle: methylcellulose (MC) 121 % of control | dose: 9.0 mg/kg/injection, schedule: Q01DX009 (ip), vehicle: saline 107 % of control | dose: 10.0 mg/kg/injection, schedule: Q01DX001 (ip), vehicle: carboxymethylcellulose (CMC) 107 % of control | dose: 11.0 mg/kg/injection, schedule: Q01DX001 (ip), vehicle: saline 109 % of control | dose: 11.0 mg/kg/injection, schedule: Q04DX003 (ip), vehicle: saline 107 % of control | dose: 12.5 mg/kg/injection, schedule: Q04DX003 (ip), vehicle: saline 108 % of control | dose: 13.0 mg/kg/injection, schedule: Q01DX009 (ip), vehicle: saline 111 % of control | dose: 15.0 mg/kg/injection, schedule: Q01DX Z (ip), vehicle: methylcellulose (MC) 97 % of control | dose: 17.0 mg/kg/injection, schedule: Q01DX001 (ip), vehicle: saline 110 % of control | dose: 17.0 mg/kg/injection, schedule: Q04DX003 (ip), vehicle: saline 105 % of control | dose: 20.0 mg/kg/injection, schedule: Q01DX001 (ip), vehicle: carboxymethylcellulose (CMC) 105 % of control | dose: 20.0 mg/kg/injection, schedule: Q01DX009 (ip), vehicle: saline 123 % of control | dose: 26.0 mg/kg/injection, schedule: Q01DX001 (ip), vehicle: saline 107 % of control | dose: 26.0 mg/kg/injection, schedule: Q04DX003 (ip), vehicle: saline 112 % of control

CN(CCO)CC(O)Cn1cnc2c1c(=O)n(C)c(=O)n2C (centres undefined) (tested in a mixture with another compound)
inactive: dose: 100.0 mg/kg/injection, schedule: Q01DX001 (ip), vehicle: saline 108 % of control | dose: 200.0 mg/kg/injection, schedule: Q01DX001 (ip), vehicle: saline 112 % of control | dose: 400.0 mg/kg/injection, schedule: Q01DX001 (ip), vehicle: saline 104 % of control

O=C1C=CC2C=CC1C(C(=O)O)C2C(=O)O (centres undefined) (tested in a mixture with another compound)
inactive: dose: 100.0 mg/kg/injection, schedule: Q01DX001 (ip), vehicle: saline with Tween-80 95 % of control | dose: 200.0 mg/kg/injection, schedule: Q01DX001 (ip), vehicle: saline with Tween-80 90 % of control | dose: 400.0 mg/kg/injection, schedule: Q01DX001 (ip), vehicle: saline with Tween-80 92 % of control

Cc1ccc(S(=O)(=O)ON=C2c3ccccc3-c3ccccc32)cc1
inactive: dose: 25.0 mg/kg/injection, schedule: Q01DX009 (ip), vehicle: Klucel (hydroxypropylcellulose) (HPC) 96 % of control | [4] 96 % of control | [9] 101 % of control | [5] 100 % of control | [6] 98 % of control | [10] 99 % of control | [7] 88 % of control and 91 % of control | [8] 93 % of control | [11] 105 % of control | [12] 103 % of control

Oc1ccc2ccc(O)c(C(NC(O)c3ccccc3)c3ccccc3)c2c1C(NC(O)c1ccccc1)c1ccccc1 (centres undefined)
inactive: [13] 96 % of control | [14] 96 % of control | dose: 40.0 mg/kg/injection, schedule: Q01DX001 (ip), vehicle: saline 93 % of control

O/N=C1\c2ccccc2-c2cc(Cl)ccc21
inactive: dose: 100.0 mg/kg/injection, schedule: Q01DX001 (ip), vehicle: carboxymethylcellulose (CMC) 94 % of control | dose: 200.0 mg/kg/injection, schedule: Q01DX001 (ip), vehicle: carboxymethylcellulose (CMC) 109 % of control | dose: 400.0 mg/kg/injection, schedule: Q01DX001 (ip), vehicle: carboxymethylcellulose (CMC) 103 % of control

O=[N+]([O-])c1cccc(/C=C/S(=O)(=O)c2ccccc2)c1
inactive: [9] 107 % of control | [6] 103 % of control | [10] 95 % of control | [8] 103 % of control | [11] 104 % of control | [12] 100 % of control

NNc1ncccn1
inactive: dose: 5.0 mg/kg/injection, schedule: Q01DX001 (ip), vehicle: saline 102 % of control | [13] 109 % of control | [14] 113 % of control
